# From PMC8808168, “Enzymatic and structural characterization of HAD5, an essential phosphomannomutase of malaria-causing parasites” (The Journal of Biological Chemistry, 2021)
# T1: HsPMM2 (Homo sapiens, UniProt O15305)
# T1 construct: gene PMM2; pET28a, His-tag cut with thrombin; E. coli BL21 Gold (DE3)
# T1 sequence (O15305 2-246): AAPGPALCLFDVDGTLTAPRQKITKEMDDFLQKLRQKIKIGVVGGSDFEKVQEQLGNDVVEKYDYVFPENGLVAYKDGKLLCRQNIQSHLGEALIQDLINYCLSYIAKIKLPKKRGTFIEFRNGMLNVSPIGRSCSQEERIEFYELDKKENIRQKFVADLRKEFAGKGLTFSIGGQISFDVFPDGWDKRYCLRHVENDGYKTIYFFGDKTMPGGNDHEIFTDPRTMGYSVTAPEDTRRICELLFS
# T2: HsPMM1 (Homo sapiens, UniProt Q92871)
# T2 construct: gene PMM1; pET28a, His-tag cut with thrombin; E. coli BL21 Gold (DE3)
# T2 sequence (Q92871 2-262): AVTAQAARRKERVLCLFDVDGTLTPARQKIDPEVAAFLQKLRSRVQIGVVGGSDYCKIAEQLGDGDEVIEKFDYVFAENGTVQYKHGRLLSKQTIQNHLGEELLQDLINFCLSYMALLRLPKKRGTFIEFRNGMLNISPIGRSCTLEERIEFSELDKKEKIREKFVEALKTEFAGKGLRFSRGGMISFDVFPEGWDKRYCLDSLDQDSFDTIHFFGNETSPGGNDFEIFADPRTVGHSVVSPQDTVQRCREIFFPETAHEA
# T3: HAD5 (PfHAD5) (Plasmodium falciparum, UniProt Q8IJM5)
# T3 construct: gene PF3D7_1017400; pET28a, N-terminal His-tag cut with thrombin; E. coli BL21 Gold (DE3); size-exclusion purified
# T3 sequence (Q8IJM5 1-244): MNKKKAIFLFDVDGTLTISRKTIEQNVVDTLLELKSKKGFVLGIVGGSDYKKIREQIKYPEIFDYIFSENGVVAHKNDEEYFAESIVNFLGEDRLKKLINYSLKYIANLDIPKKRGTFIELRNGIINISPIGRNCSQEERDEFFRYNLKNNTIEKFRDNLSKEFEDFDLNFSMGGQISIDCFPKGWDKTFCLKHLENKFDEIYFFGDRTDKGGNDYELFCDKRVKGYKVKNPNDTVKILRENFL
# B1: HAD5 (PfHAD5) (Plasmodium falciparum 3D7) (protein)
# chain: MNKKKAIFLFDVDGTLTISRKTIEQNVVDTLLELKSKKGFVLGIVGGSDYKKIREQIKYPEIFDYIFSENGVVAHKNDEEYFAESIVNFLGEDRLKKLINYSLKYIANLDIPKKRGTFIELRNGIINISPIGRNCSQEERDEFFRYNLKNNTIEKFRDNLSKEFEDFDLNFSMGGQISIDCFPKGWDKTFCLKHLENKFDEIYFFGDRTDKGGNDYELFCDKRVKGYKVKNPNDTVKILRENFL
# Legend:
# HsPMM2 = target: T1, HsPMM2; experiment: coupled PGM assay (G6PDH, NADPH at […] nm); assay type: biochemical; conditions: 1 mM glucose 1-phosphate, 10 μM G-1,6-P, 1 mM MgCl2, pH 7.5, room temperature, 65 nM enzyme
# HsPMM1 = target: T2, HsPMM1; experiment: coupled PGM assay (G6PDH, NADPH at […] nm); assay type: biochemical; conditions: 1 mM glucose 1-phosphate, 10 μM G-1,6-P, 1 mM MgCl2, pH 7.5, room temperature, 133 nM enzyme
# HAD5 (PfHAD5) = target: T3, HAD5 (PfHAD5); experiment: linked PMM assay, activation; assay type: biochemical; conditions: 12.5 μM G-1,6-P, 1 mM mannose 6-phosphate, pH 7.5, room temperature; activator
# purified protein = substrate: O=P(O)(O)O[C@H]1O[C@H](CO)[C@@H](O)[C@H](O)[C@H]1O; experiment: purified protein; conditions: G1P to G6P, 10 μM G-1,6-P, 0.75 mM NADP+, 25 mM Tris-HCl, 25 mM NaCl, 1 mM MgCl2, pH 7.5, room temperature
molecule,measurement,setting,value
"O=P(O)(O)C[C@H]1O[C@H](CNO)[C@@H](O)[C@H](O)[C@H]1O [D9, compound D9]",IC50,HsPMM2,413 ± 41 µM
same,IC50,HsPMM1,895 ± 66 µM
"O=P(O)(O)OC[C@H]1O[C@H](OP(=O)(O)O)[C@H](O)[C@@H](O)[C@@H]1O [glucose-1,6-bisphosphate]","linked PMM assay, activation",HAD5 (PfHAD5),"upon addition of the known cofactor glucose-1,6-bisphosphate"
B1,Km,purified protein,5.2 ± 1.4 µM
same,kcat,purified protein,7.8e-06 ± 1.2e-06 s⁻¹
same,kcat/Km,purified protein,1.5 M⁻¹ s⁻¹
